Earlier results on four compounds are cited in US11499155B2, “Dynamin 2 inhibitor for the treatment of centronuclear myopathies” (UNIVERSITE DE STRASBOURG, priority 2013, dated 2022).

Usually IC50 stands for the concentration that gives 50% inhibition.

The structures appear in SMILES notation.

For data set [1], the system named is mitochondrial division. As to conditions: read-out: IC50 (mitochondrial division inhibitor).
Data set [2] relates to Dynamin.
In data set [3] the target is receptor-mediated and synaptic vesicle endocytosis. The conditions noted are these: read-out: IC50 for inhibition of receptor-mediated and synaptic vesicle endocytosis.

Consider `COc1cc(-n2c(S)nc3ccccc3c2=O)c(Cl)cc1Cl` [M-divi 1, 3-(2,4-Dichloro-5-methoxyphenyl)-2-sulfanylquinazolin-4(3H)-one], for which the IC50 in data set [1] was 10000 nM. Turning to `O=C(NN=Cc1cc(O)c(O)cc1O)c1cc2ccccc2cc1O` [Hydroxy-Dynasore, 3-Hydroxy-N′-[(2,4,5-trihydroxyphenyl)methylidene]naphthalene-2-carbohydrazide], the IC50 in data set [2] was 2500 nM.

For the compound `CCCCCCCCCCCCCCCCCC[N+](C)(C)CCN1C(=O)C2C3CCC(O3)C2C1=O` (stereo not shown) [RTIL-13, 4-(N,N-Dimethyl-N-octadecyl-N-ethyl)-4-aza-10-oxatricyclo-[5.2.1]decane-3,5-dione bromide], the IC50 in data set [2] is 2300 nM. In the case of `CCCCCCCCCCCCCC[N+](C)(C)C` [MiTMAB, Tetradecyltrimethylammonium bromide], the IC50 in data set [3] is 2200 nM.
